{
  "source": "patent US20130237496A1",
  "about": "“ACTIVE INGREDIENT OBTAINED FROM CICHORIUM INTYBUS FOR ACTING ON THE BARRIER FUNCTION OF THE SKIN THAT IS SIMILAR TO THAT OF VITAMIN D” (SOCIETE INDUSTRIELLE LIMOUSINE D'APPLICATION BIOLOGIQUE, priority 2012, published 2013)",
  "assay_type_in_all_cases": "cell-based",
  "key": {"filaggrin": {"test_system": "filaggrin", "assay": "Synthesis of filaggrin in reconstructed epidermis from aged human keratinocytes (immunohistological marking)", "excerpt": "(§1) The object of this study is to evaluate the capacity of a Cichorium intybus root hydrolyzate comprising oligofructosans to promote the construction of a stratified and functional epidermis starting from aged human keratinocytes obtained by successive replications. First, the young human keratinocytes (passage 1: […] Next, the reconstructed epidermis (RE) is obtained after the young or aged human keratinocytes are cultivated. On D12 and D19, the RE are recovered, fixed, dehydrated and included in paraffin. Sections (4 μm) are then made using a microtome. Next, an HE coloring, and then an immunohistological marking of the filaggrin, terminal differentiation marker, are carried out. The display is produced on a microscope coupled with an image analysis system: • The thickness of the epidermis (living cell layers) is measured on the histological sections after the HE coloring, • The synthesis of the filaggrin is proportional to the intensity of the fluorescence (green color) that is present in the reconstructed epidermis."}, "[1]": {"test_system": "Aged reconstructed epidermis", "assay": "Thickness of reconstructed epidermis from aged human keratinocytes (HE coloring)", "excerpt": "as §1"}, "Cystatin E/M": {"test_system": "Cystatin E/M", "assay": "Expression of RNAm by quantitative PCR in human keratinocytes of aged donors: cystatin E/M", "conditions": "10^−7M, 48 hours", "excerpt": "(§2) The object of this study is to evaluate the effect of a Cichorium intybus root hydrolyzate comprising oligofructosans (Example 1) on its capacity to modulate the expression of the RNAm coding for epidermal differentiation proteins: • Kruppel-like factor 4 (KLF4): transcription factor involved in the terminal differentiation of keratinocytes, • Cytokeratin 1 (CK1): components of intermediate keratin filaments, • Involucrin: protein of the cornified envelope, • Cystatin E/M: Inhibitor of lysosomal protease cysteines that are involved in the differentiation of keratinocytes and desquamation. • Kallikrein 5 (KLK5 or SCTE): stratum corneum tryptic enzyme involved in desquamation.\n(§3) The study was done by quantitative PCR on normal human keratinocytes obtained from aged donors (age of greater than 60 years), according to the operating procedure described below.\n(§4) On D0, the human keratinocytes of aged donors are inoculated and incubated at 37° C.\n(§5) The cells are then incubated for 48 hours at 37° C.\n(§6) On D4, the cells are recovered, and the total RNA are extracted. The RNA are reverse-transcripts, and the complementary DNA that are obtained are analyzed by quantitative PCR (quantitative polymerase chain reaction).\n(§7) The quantification of the incorporation of fluorescence is measured continuously using a thermal cycler, and the relative quantification is carried out using software."}, "Involucrin": {"test_system": "Involucrin", "assay": "Expression of RNAm by quantitative PCR in normal human keratinocytes: involucrin", "conditions": "aged human keratinocytes; 10^−7M; 48 hours", "excerpt": "(§8) The study consists in comparing the effect of these different fractions on the expression of the involucrin and the KLK5 by quantitative PCR on normal human keratinocytes, with the result obtained for the active ingredient according to the invention at 1%. The test protocol is the one described in Item II. […]\n(§9) The study was done by quantitative PCR on normal human keratinocytes obtained from aged donors (age of greater than 60 years), according to the operating procedure described below. […]\nas §6, §7"}, "[2]": {"test_system": "Kallikrein 5 (KLK5 or SCTE)", "assay": "Expression of RNAm by quantitative PCR in normal human keratinocytes: KLK5", "conditions": "aged human keratinocytes; 10^−7M; 48 hours", "excerpt": "as §8, §9, §6, §7"}, "[3]": {"test_system": "Kruppel-like factor 4 (KLF4)", "assay": "Expression of RNAm by quantitative PCR in human keratinocytes of aged donors: KLF4", "conditions": "10^−7M, 48 hours", "excerpt": "as §2, §3, §4, §5, §6, §7"}, "Cytokeratin 1 (CK1)": {"test_system": "Cytokeratin 1 (CK1)", "assay": "Expression of RNAm by quantitative PCR in human keratinocytes of aged donors: cytokeratin 1", "conditions": "10^−7M, 48 hours", "excerpt": "as §2, §3, §4, §5, §6, §7"}},
  "data": [
    {"smiles": "C=C1/C(=C\\C=C2/CCC[C@]3(C)[C@@H]([C@H](C)CCCC(C)(C)O)CC[C@@H]23)C[C@@H](O)C[C@@H]1O", "note": "[Calcitriol, calcitriol]", "values": [
      {"measurement": "Synthesis of Filaggrin (×10^4 UA)", "setting": "filaggrin; D12, 10^−8M", "result": "116 ×10^4 UA"},
      {"measurement": "Synthesis of Filaggrin (×10^4 UA)", "setting": "filaggrin; D19, 10^−8M", "result": "795 (FIG. 2c) ×10^4 UA"},
      {"measurement": "Thickness of the Epidermis (μm)", "setting": "[1]; D12, 10^−8M", "result": 37.8, "unit": "μm"},
      {"measurement": "Thickness of the Epidermis (μm)", "setting": "[1]; D19, 10^−8M", "result": "58.6 (FIG. 1c) μm"},
      {"measurement": "RNAm Level/Control (%) Cystatin E/M", "setting": "Cystatin E/M", "result": "+65%"},
      {"measurement": "RNAm Level/Control (%) Involucrin", "setting": "Involucrin", "result": "+42%"},
      {"measurement": "RNAm Level/Control (%) KLK5", "setting": "[2]", "result": "+26%"},
      {"measurement": "RNAm Level/Control (%) KLF4", "setting": "[3]", "result": "+25%"},
      {"measurement": "RNAm Level/Control (%) Cytokeratin 1", "setting": "Cytokeratin 1 (CK1)", "result": 0, "unit": "%"}
    ]}
  ]
}
